Assay: In vitro skin diffusion study, vertical Franz diffusion cell, HPLC-ESI-MS of markers
Format: in vitro ADME, pig
Conditions: 24 hours; for elevation of diffusion properties, transdermal patch relative to herbal paste control, receiving medium: FIG. 4A, markers diffused in the receiving medium; for elevation of diffusion properties, transdermal patch relative to herbal paste control, pig skin: FIG. 4B, markers remained in the pig skin; for percentage by weight of marker diffused to the dermis (remained in pig skin), Herbal Paste (Control) / percentage by weight of marker in the receiving cell, Herbal Paste (Control): donor: herbal paste of Example 1; for percentage by weight of marker diffused to the dermis (remained in pig skin), Herbal Paste (Control) / percentage by weight of marker in the receiving cell, Herbal Paste (Control) / percentage by weight of marker diffused to the dermis (remained in pig skin), Transdermal Patch (Test Sample) / percentage by weight of marker in the receiving cell, Transdermal Patch (Test Sample): 37° C., pig skin; for percentage by weight of marker diffused to the dermis (remained in pig skin), Transdermal Patch (Test Sample) / percentage by weight of marker in the receiving cell, Transdermal Patch (Test Sample): donor: transdermal patch of Example 4.2
Procedure: A vertical Franz diffusion cell (Hanson Research, USA) is used to carry out in vitro skin diffusion study. […] The receiving medium is formed by physiological saline solution of (0.9% NaCl). The donor compartment is filled with the test sample or control sample. […] After 24 hours, contents of the receiving cell and pig skin sample are collected, the solution from the receiving cell (i.e. receiving medium) and pig skin are detected for chemical markers found therein in order to analyze the transdermal diffusion rate of the test sample and control sample. The test is performed in triplicate. HPLC-ESI-MS is used to detect diffused markers and control sample. Agilent 1290 Infinity LC system (purchased from Agilent Technologies) having a vacuum device, a binary liquid pump, an autosampler, Agilent 6410 triple quadrupole (Triple Quad) LC/MS connected with a Agilent MassHunter computer software (Workstation) is used. Acquity UPLC HSS T3 1.8 μm (2.1 mm×150 mm) column is used and the Acquity UPLC is maintained a temperature of 40° C. […] The flow rate is controlled at 0.5 mL/min, and injection volume of 20 µL. MS analysis using Agilent 6410 triple quadrupole LC/MS configured with ESI MS is carried out under negative ion mode and multiple reaction monitoring modes. Target ions of HYA is m/z 611.2->325.0; Rg1 is m/z 799.5->637.4; […] is m/z 927.5->603.3; Rb1 is m/z 1107.6->119.0; Kae is m/z 285.0->117.0; Emo is m/z 269.0->241.0; Rhe is m/z 283.0->239.0 and OA is m/z 455.3->407.4.

Compound | elevation of diffusion properties, transdermal patch relative to herbal paste control, receiving medium [times] | elevation of diffusion properties, transdermal patch relative to herbal paste control, pig skin [times] | percentage by weight of marker diffused to the dermis (remained in pig skin), Herbal Paste (Control) [wt %] | percentage by weight of marker in the receiving cell, Herbal Paste (Control) (receiving medium 0.9% NaCl) [wt %] | percentage by weight of marker diffused to the dermis (remained in pig skin), Transdermal Patch (Test Sample) [wt %] | percentage by weight of marker in the receiving cell, Transdermal Patch (Test Sample) (receiving medium 0.9% NaCl) [wt %] | detection in the receiving medium (in words) (receiving medium 0.9% NaCl)
CC1(C)CC[C@]2(C(=O)O[C@@H]3O[C@H](CO[C@@H]4O[C@H](CO)[C@@H](O)[C@H](O)[C@H]4O)[C@@H](O)[C@H](O)[C@H]3O)CC[C@]3(C)C(=CC[C@@H]4[C@@]5(C)CC[C@H](O[C@@H]6OC[C@H](O)[C@H](O)[C@H]6O)[C@@](C)(CO)[C@@H]5CC[C@]43C)[C@@H]2C1 [ASP6, Asperosaponin VI] | 32 | 33 | 0.0859 | 0.1375 | 2.8010 | 4.4904 | 
Cc1cc(O)c2c(c1)C(=O)c1cc(O)cc(O)c1C2=O [Emo, Emodin] | 203 | 5 | 0.2773 | 0.0091 | 1.3656 | 1.8494 | 
CC(C)=CCC[C@](C)(O[C@@H]1O[C@H](CO[C@@H]2O[C@H](CO)[C@@H](O)[C@H](O)[C@H]2O)[C@@H](O)[C@H](O)[C@H]1O)[C@H]1CC[C@]2(C)[C@@H]1[C@H](O)C[C@@H]1[C@@]3(C)CC[C@H](O[C@@H]4O[C@H](CO)[C@@H](O)[C@H](O)[C@H]4O[C@@H]4O[C@H](CO)[C@@H](O)[C@H](O)[C@H]4O)C(C)(C)[C@@H]3CC[C@]12C [Rb1, Ginsenoside Rb1] | 472 | 17 |  | 0.0167 |  | 7.8820 | 
CC(C)=CCC[C@](C)(O[C@@H]1O[C@H](CO)[C@@H](O)[C@H](O)[C@H]1O)[C@H]1CC[C@]2(C)[C@@H]1[C@H](O)C[C@@H]1[C@@]3(C)CC[C@H](O)C(C)(C)[C@@H]3[C@@H](O[C@@H]3O[C@H](CO)[C@@H](O)[C@H](O)[C@H]3O)C[C@]12C [Rg1, Ginsenoside Rg1] | 14 | 21 |  | 1.1884 |  | 16.3635 | 

Next, values leading:

elevation of diffusion properties, transdermal patch relative to herbal paste control, receiving medium [times] | elevation of diffusion properties, transdermal patch relative to herbal paste control, pig skin [times] | percentage by weight of marker diffused to the dermis (remained in pig skin), Herbal Paste (Control) [wt %] | percentage by weight of marker in the receiving cell, Herbal Paste (Control) (receiving medium 0.9% NaCl) [wt %] | percentage by weight of marker diffused to the dermis (remained in pig skin), Transdermal Patch (Test Sample) [wt %] | percentage by weight of marker in the receiving cell, Transdermal Patch (Test Sample) (receiving medium 0.9% NaCl) [wt %] | detection in the receiving medium (in words) (receiving medium 0.9% NaCl) | Compound
11 | 12 | 0.7532 | 6.5294 | 9.0852 | 72.3590 |  | O=c1c(O)c(-c2ccc(O)cc2)oc2cc(O)cc(O)c12 [Kae, Kaempferol]
 | 47 | 0.1253 | 0.0000 | 5.8588 | 0.0000 | cannot be detected | CC1(C)CC[C@]2(C(=O)O)CC[C@]3(C)C(=CC[C@@H]4[C@@]5(C)CC[C@H](O)C(C)(C)[C@@H]5CC[C@]43C)[C@@H]2C1 [OA, Oleanolic Acid]
21 | 11 | 0.1371 | 0.2299 | 1.4277 | 4.8924 |  | O=C(O)c1cc(O)c2c(c1)C(=O)c1cccc(O)c1C2=O [Rhein]
8 | 41 | 0.0117 | 2.0879 | 0.4772 | 16.5104 |  | Hydrosafflower yellow A [HYA]

— patent publication US20140358094A1, “COMPOSITION, THE NANO-EMULSION AND TRANSDERMAL PATCH, METHODS OF PREPARATION AND USE THEREOF FOR TREATING TRAUMATIC INJURIES” (Nano and Advanced Materials Institute Limited, priority 2013, published 2014)
